Source: ChEMBL document CHEMBL3044826, “Design, synthesis and biological evaluation of some novel substituted 2-mercapto-3-phenethylquinazolines as antitumor agents” (2013)

What was measured:
Type in all cases: functional
MCF7 = assay: Cytotoxicity against Homo sapiens (human) MCF7 cells assessed as growth inhibition at 10 uM after 48 hr by coulter counter analysis; conditions: MCF7, 48 h, read-out: GI
IGROV-1 = assay: Cytotoxicity against Homo sapiens (human) IGROV1 cells assessed as growth inhibition at 10 uM after 48 hr by coulter counter analysis; conditions: IGROV-1, 48 h, read-out: GI
OVCAR-3 = assay: Cytotoxicity against Homo sapiens (human) OVCAR3 cells assessed as growth inhibition at 10 uM after 48 hr by coulter counter analysis; conditions: OVCAR-3, 48 h, read-out: GI
SK-MEL-28 = assay: Cytotoxicity against Homo sapiens (human) SK-MEL-28 cells assessed as growth inhibition at 10 uM after 48 hr by coulter counter analysis; conditions: SK-MEL-28, 48 h, read-out: GI
UACC-257 = assay: Cytotoxicity against Homo sapiens (human) UACC257 cells assessed as growth inhibition at 10 uM after 48 hr by coulter counter analysis; conditions: UACC-257, 48 h, read-out: GI
NCI-H460 = assay: Cytotoxicity against Homo sapiens (human) NCI-H460 cells assessed as growth inhibition at 10 uM after 48 hr by coulter counter analysis; conditions: NCI-H460, 48 h, read-out: GI
Hs-578T = assay: Cytotoxicity against Homo sapiens (human) Hs578T cells assessed as growth inhibition at 10 uM after 48 hr by coulter counter analysis; conditions: read-out: GI
NCI-H23 = assay: Cytotoxicity against Homo sapiens (human) NCI-H23 cells assessed as growth inhibition at 10 uM after 48 hr by coulter counter analysis; conditions: NCI-H23, 48 h, read-out: GI
HT-29 = assay: Cytotoxicity against Homo sapiens (human) HT-29 cells assessed as growth inhibition at 10 uM after 48 hr by coulter counter analysis; conditions: HT-29, 48 h, read-out: GI
NCI-H522 = assay: Cytotoxicity against Homo sapiens (human) NCI-H522 cells assessed as growth inhibition at 10 uM after 48 hr by coulter counter analysis; conditions: NCI-H522, 48 h, read-out: GI
HCT-15 = assay: Cytotoxicity against Homo sapiens (human) HCT15 cells assessed as growth inhibition at 10 uM after 48 hr by coulter counter analysis; conditions: HCT-15, 48 h, read-out: GI
OVCAR-4 = assay: Cytotoxicity against Homo sapiens (human) OVCAR4 cells assessed as growth inhibition at 10 uM after 48 hr by coulter counter analysis; conditions: OVCAR-4, 48 h, read-out: GI
SK-OV-3 = assay: Cytotoxicity against Homo sapiens (human) SKOV3 cells assessed as growth inhibition at 10 uM after 48 hr by coulter counter analysis; conditions: SK-OV-3, 48 h, read-out: GI
786-0 = assay: Cytotoxicity against Homo sapiens (human) 786-0 cells assessed as growth inhibition at 10 uM after 48 hr by coulter counter analysis; conditions: 786-0, 48 h, read-out: GI
Malme-3M = assay: Cytotoxicity against Homo sapiens (human) MALME-3M cells assessed as growth inhibition at 10 uM after 48 hr by coulter counter analysis; conditions: read-out: GI
T47D = assay: Cytotoxicity against Homo sapiens (human) T47D cells assessed as growth inhibition at 10 uM after 48 hr by coulter counter analysis; conditions: read-out: GI
HCT-116 = assay: Cytotoxicity against Homo sapiens (human) HCT116 cells assessed as growth inhibition at 10 uM after 48 hr by coulter counter analysis; conditions: HCT-116, 48 h, read-out: GI
NCI-H226 = assay: Cytotoxicity against Homo sapiens (human) NCI-H226 cells assessed as growth inhibition at 10 uM after 48 hr by coulter counter analysis; conditions: NCI-H226, 48 h, read-out: GI
CCRF-CEM = assay: Cytotoxicity against Homo sapiens (human) CCRF-CEM cells assessed as growth inhibition at 10 uM after 48 hr by coulter counter analysis; conditions: read-out: GI

Measured: inhibition of growth at 10 µM

O=c1c2ccccc2nc(SCc2ccc([N+](=O)[O-])cc2)n1CCc1ccccc1
15%: NCI-H23 | HT-29 | T47D
< 10%: MCF7 | IGROV-1 | OVCAR-3 | SK-MEL-28 | UACC-257 | NCI-H460 | NCI-H522 | HCT-15 | OVCAR-4 | SK-OV-3 | 786-0 | Malme-3M
20%: HCT-116
19%: Hs-578T

O=C1c2ccccc2C(=O)N1CCCSc1nc2ccccc2c(=O)n1CCc1ccccc1
< 10%: MCF7 | IGROV-1 | OVCAR-3 | SK-MEL-28 | UACC-257 | NCI-H460 | NCI-H23 | OVCAR-4 | NCI-H226 | Malme-3M
31%: HCT-15
21%: HCT-116
13%: HT-29 | NCI-H522 | 786-0
12%: SK-OV-3
30%: T47D

O=c1c2ccccc2nc(SCCN2CCOCC2)n1CCc1ccccc1
< 10%: MCF7 | IGROV-1 | OVCAR-3 | SK-MEL-28 | UACC-257 | NCI-H460 | Hs-578T | NCI-H23 | HT-29 | NCI-H522 | HCT-15 | OVCAR-4 | NCI-H226 | SK-OV-3 | 786-0 | Malme-3M | HCT-116

O=c1c2ccccc2nc(SCCN2CCCCC2)n1CCc1ccccc1
< 10%: OVCAR-3 | SK-MEL-28 | UACC-257 | NCI-H460 | Hs-578T | NCI-H226 | SK-OV-3 | Malme-3M
35%: T47D
23%: NCI-H23
22%: IGROV-1
27%: HCT-116
11%: NCI-H522
37%: MCF7
70%: HT-29
20%: HCT-15
14%: OVCAR-4 | 786-0

COc1ccc(-n2c(S)nnc2CSc2nc3ccccc3c(=O)n2CCc2ccccc2)cc1
16%: IGROV-1
28%: MCF7
25%: HCT-15
< 10%: OVCAR-3 | SK-MEL-28 | UACC-257 | NCI-H460 | Hs-578T | NCI-H23 | HT-29 | NCI-H522 | OVCAR-4 | NCI-H226 | SK-OV-3 | 786-0 | Malme-3M | T47D | HCT-116
13%: CCRF-CEM
